Values joined by “and” are separate entries in the source; they are usually repeats but may differ in a detail not shown here. Equal entries are not always repeated.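 These data come from cells grown in 96-well plates and exposed to compound for 48 hours at five concentrations. GI50 marks 50% less growth. At the TGI there is no net growth.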
Columns and labels:
Assay in all cases: growth of human tumour cells (NCI), 48 h
MCF7 breast = system: MCF7 breast
A549 NSCLC = system: A549 NSCLC
HOP-92 NSCLC = system: HOP-92 NSCLC
786-0 renal = system: 786-0 renal
RXF 393 renal = system: RXF 393 renal
HS 578T breast = system: HS 578T breast
SF-295 CNS = system: SF-295 CNS
A498 renal = system: A498 renal
CAKI-1 renal = system: CAKI-1 renal
CCRF-CEM leukemia = system: CCRF-CEM leukemia

Structure (SMILES)	GI50 (MCF7 breast)	TGI (MCF7 breast)	GI50 (A549 NSCLC)	TGI (A549 NSCLC)	GI50 (HOP-92 NSCLC)	TGI (HOP-92 NSCLC)	GI50 (786-0 renal)	TGI (786-0 renal)	GI50 (RXF 393 renal)	TGI (RXF 393 renal)	GI50 (HS 578T breast)	TGI (HS 578T breast)	GI50 (SF-295 CNS)	TGI (SF-295 CNS)	GI50 (A498 renal)	TGI (A498 renal)	GI50 (CAKI-1 renal)	TGI (CAKI-1 renal)	GI50 (CCRF-CEM leukemia) [µM]	TGI (CCRF-CEM leukemia)
C=CC(=O)Nc1cccc(Oc2nc(Nc3ccc(N4CCN(C)CC4)cc3)nc3ccsc23)c1	2.22 µM and 1.72 µM	8.96 µM and 4.48 µM	3.47 µM and 3.71 µM	> 10 µM and 17.6 µM	0.801 µM and 1.81 µM	6.47 µM and 4.97 µM	1.3 µM and 2.07 µM	3.25 µM and 4.62 µM	1.54 µM	3.31 µM and 4.26 µM	6.16 µM and 4.88 µM	> 10 µM and 41.3 µM	7.68 µM	> 10 µM and 21.3 µM	3.51 µM and 0.862 µM	> 10 µM and 9.65 µM	1.99 µM	> 10 µM	2.6	9.88 µM
O=C(NN1C(=O)CSC12CCCCC2)c1[nH]c2ccc(Br)cc2c1-c1ccccc1	14.6 µM	31.5 µM	15 µM	30.5 µM	20.7 µM	42.3 µM	18.9 µM	38.9 µM	14.2 µM	30.3 µM	23.1 µM	66.1 µM	16.2 µM	31.9 µM	24.1 µM	60.5 µM	25.5 µM	80 µM	19.6	52.8 µM
NC(=O)c1csc(C2OC(CO)C(O)C2O)n1 (stereo not drawn)	76.3 µM	7340 µM	130 µM	> 10000 µM		1300 µM	15.5 µM	3460 µM		6320 µM	77.7 µM	875 µM	> 43.9 µM and 13.6 µM	> 8180 µM		> 9690 µM	65.8 µM and > 50.1 µM	1220 µM	15.6	
O=S(=O)(c1ccc(Cl)cc1)C(Cl)(Cl)Cl	2.72 µM	> 100 µM	3.46 µM	> 50 µM	1.71 µM	23.2 µM	0.968 µM	18.1 µM	1.47 µM	8.91 µM	2.27 µM	29.2 µM	5.3 µM	23 µM	1.15 µM	13 µM	0.251 µM	0.879 µM	1.62	> 32.6 µM
COc1cc(N2C(=O)[C@H](O)C2c2ccc(SC)cc2)cc(OC)c1OC (stereo partly drawn)	< 0.01 µM	> 100 µM	0.0131 µM	> 100 µM	71.4 µM	> 100 µM	< 0.01 µM	55.8 µM	< 0.01 µM	> 100 µM	< 0.01 µM	> 100 µM	< 0.01 µM	26.1 µM	< 0.01 µM	0.0882 µM	< 0.01 µM	> 100 µM	< 0.01	> 100 µM
C[C@@H]1CN(Cc2ccc(F)cc2)[C@@H](C)CN1C(=O)c1cc2c(C(=O)C(=O)N(C)C)cn(C)c2cc1Cl	15.2 µM	37.3 µM	24 µM	> 92.4 µM	19.4 µM	56.5 µM	21.2 µM	67.1 µM	12.3 µM	27.6 µM	19.8 µM	62.8 µM	14.9 µM	36.7 µM	9.9 µM	43.8 µM	16.1 µM	67.4 µM	18.5	50.2 µM
CC1=C2[C@@H](CC1)[C@]1(C)O[C@@](c3ccccc3)(C[C@H]1OC(=O)CO)[C@H]2OC(=O)/C=C/c1ccccc1	8.86 µM	32.1 µM	14.5 µM	38 µM	13.7 µM	29.7 µM	5.23 µM	25.6 µM	0.0388 µM	1.31 µM	0.0309 µM	0.961 µM	12.8 µM	31.7 µM	0.0966 µM	0.478 µM	12.5 µM	41.4 µM	16.9	56.9 µM
COc1ccccc1-c1cc(=O)c2cc(C)cnc2[nH]1		> 100 µM		> 100 µM		> 100 µM	41.4 µM	> 100 µM		> 100 µM		> 100 µM	31.1 µM	> 100 µM		79.2 µM		> 100 µM		55.2 µM
c1cnn2ncc(-c3ccnc(NCCCN4CCOCC4)n3)c2c1	5.97 µM	> 19 µM	7.7 µM	> 25 µM	5.08 µM	17.4 µM	8.63 µM	> 25 µM	3.34 µM	7.78 µM	6.2 µM	> 23.1 µM	5.81 µM	> 20.4 µM	4.18 µM	12.2 µM	6.64 µM	> 25 µM	7.73	> 25 µM
COc1cccc(OC(=O)c2ccc(C(F)(F)F)nc2Nc2cc(Cl)ccc2C)c1	4.2 µM	> 100 µM	6.1 µM	> 100 µM	1.63 µM	6.98 µM	10.7 µM	24.5 µM	0.245 µM	0.987 µM	1.23 µM	4.79 µM	23.9 µM	48.2 µM	4.19 µM	20.9 µM	17.6 µM	36.1 µM	2.12	5.13 µM
Cc1ccc(/C=N\NC(=O)c2[nH]c3ccc(F)cc3c2-c2ccccc2)cc1	0.0299 µM	> 100 µM	0.0344 µM	> 100 µM	0.0363 µM	50.3 µM	0.0387 µM	23.2 µM	0.0305 µM	1.49 µM	0.0375 µM		0.0266 µM	1.2 µM	0.0387 µM	24.5 µM	0.0344 µM	12.5 µM	0.0275	> 100 µM
CN[C@@H](C)C(=O)N[C@H](C(=O)N1CCC[C@H]1C(=O)Nc1sc(-c2ncco2)nc1-c1ccccc1)C1CCCCC1	21.7 µM	> 100 µM	80.5 µM	> 100 µM	3.52 µM	13.4 µM	28.2 µM	> 67.2 µM	8.51 µM	32.3 µM	50 µM	> 100 µM	52.9 µM	> 100 µM	26.6 µM	> 88 µM	51.8 µM	> 100 µM	32.5	> 100 µM
O=C1CCC(N2Cc3cc(CNC(=O)C(F)(F)c4ccc(Cl)cc4)ccc3C2=O)C(=O)N1 (stereo not drawn)	> 100 µM	> 100 µM	> 100 µM	> 100 µM	0.0741 µM	> 100 µM	> 100 µM	> 100 µM	19 µM	> 100 µM	1.71 µM	> 100 µM	> 100 µM	> 100 µM	8.17 µM	> 100 µM	40.5 µM	> 100 µM	< 0.0156	
Nc1nc(OCc2ccccc2)c2[nH]cnc2n1	41.9 µM and 41.8 µM	355 µM	35.1 µM and 48.9 µM	338 µM and 240 µM	7.9 µM and 27.2 µM	89.2 µM and 239 µM and 183 µM	40.1 µM and 27.8 µM	400 µM and 96.9 µM	14.4 µM and 22.1 µM	94.5 µM and 169 µM and 145 µM	18.9 µM and 18.3 µM	49.5 µM and 57.5 µM	35.2 µM and 24.1 µM	395 µM and 118 µM	15.2 µM	183 µM and 71.3 µM	13.2 µM and 13.4 µM	44.2 µM and 72.4 µM and 43.5 µM	39.5	319 µM and 274 µM
CN(C)CCCn1c(=O)c2ccccc2c2ccccc21	7.24 µM	> 100 µM	6.63 µM	49.5 µM	17.9 µM	67.2 µM	12.5 µM	> 100 µM	12.5 µM	26.7 µM	17.8 µM	49 µM	7.69 µM	32.8 µM	15.7 µM	30.6 µM	6.23 µM	34.9 µM	22	> 100 µM
CCCN(CCS(C)(=O)=O)Cc1ccc(-c2ccc3ncnc(Nc4ccc(OCc5cccc(F)c5)c(Cl)c4)c3c2)o1	> 20.2 µM	> 25 µM	> 25 µM	> 25 µM	> 25 µM	> 25 µM	> 25 µM	> 25 µM	24.9 µM	> 25 µM	> 25 µM	> 25 µM	> 25 µM	> 25 µM	> 13.6 µM	> 25 µM	0.997 µM	> 25 µM	7.39	> 25 µM
Fc1ccc(/C=N/n2c(-c3ccc(F)c(Cl)c3)nn(CNc3ccccc3C(F)(F)F)c2=S)cc1	30.7 µM	> 100 µM	52.8 µM	> 100 µM	17.6 µM	63.8 µM	75.4 µM	> 100 µM	59.4 µM	> 100 µM	45.2 µM	> 100 µM	42.6 µM	> 100 µM	12.5 µM	63.7 µM	> 100 µM	> 100 µM	51.6	> 100 µM
Cc1cc(S(=O)(=O)/N=C(/N)Nc2ccccc2O)c(SCc2ccccc2)cc1Cl	15.9 µM	55.7 µM	10.2 µM	32.1 µM	15.3 µM	35.6 µM	18.6 µM	35 µM	12.1 µM	27.9 µM	21.8 µM	47.9 µM	19 µM	39.5 µM	21.2 µM	39.1 µM	13.5 µM	32.3 µM	5.95	39.8 µM
OCC12C3C4C5C3C1C5C42 (stereo not drawn)		> 100 µM		> 100 µM		> 100 µM		> 100 µM		> 100 µM		> 100 µM		> 100 µM		> 100 µM		> 100 µM		> 100 µM
O=C1c2ccccc2-c2cc([N+](=O)[O-])c([N+](=O)[O-])cc21		2.4 µM		6.23 µM		3.2 µM		5.86 µM		2.64 µM		> 100 µM		3.08 µM		33.1 µM		6.17 µM		0.958 µM
O=C(/C=C/c1cc2ccccc2[nH]c1=O)/C=C/c1cc2ccccc2[nH]c1=O	3.84 µM	> 47.7 µM		> 59.2 µM	> 100 µM	> 100 µM		> 26.1 µM	6.88 µM	10.8 µM	> 39.9 µM	> 100 µM	> 25.3 µM	> 86.2 µM	> 50.1 µM	> 100 µM	15.2 µM	> 100 µM	7.97	> 100 µM
O=C1OC(=O)C(=C\c2ccc3c(c2)OCO3)/C1=C/c1ccc2c(c1)OCO2		> 100 µM		> 100 µM		> 100 µM		> 100 µM		> 100 µM		> 100 µM		> 100 µM		> 100 µM		> 100 µM		> 88.6 µM
CC(C)C[C@H](NC(=O)CNC(=O)c1cc(Cl)ccc1Cl)B1OC(=O)CC(CC(=O)O)(C(=O)O)O1 (stereo partly drawn)	0.0391 µM	43.1 µM	0.11 µM	20.6 µM	0.0219 µM	0.173 µM	0.0655 µM		0.0193 µM	0.0438 µM	0.0524 µM	80.7 µM	0.071 µM	1.14 µM	0.0347 µM	0.164 µM	0.041 µM	4.48 µM	0.0299	> 100 µM

From PubChem BioAssay (NCI)
